Where two headings read alike, the source gives them in different places.
Key:
5-HT7 receptor = target: 5-HT7 receptor; parameters: method as in PMID 26554929; conditions: previous experiments; read-out: 5-HT7 receptor antagonist IC50; cited from earlier work
[1] = distribution to brain after i.v. and i.p. administration; assay type: in vivo, mice; conditions: for Kp: brain and plasma, HBK-14 2.5 mg/kg, HBK-15 1.25 mg/kg, read-out: brain/plasma ratio
Experimental: (§1) For pharmacokinetic study, HBK-14 and HBK-15 dissolved in saline were administered by an intravenous (i.v.) and intraperitoneal (i.p.) administration at a dose of 2.5 and 1.25 mg/kg, respectively. Blood samples were collected at 0 min (predose), 5 min, 15 min, 30 min, 60 min, 120 min, and 240 min after compounds administration. The blood and brain samples were collected under general anesthesia induced by i.p. injections of 50 mg/kg ketamine plus 8 mg/kg xylazine. Blood samples were collected into heparinized tubes. The samples were immediately centrifuged at 3500 rpm for 10 min, and plasma was collected. The brain and plasma samples were immediately frozen at −80 °C for further analysis.
(§2) The quantification of studied compounds in plasma and brain samples was accomplished using UFLC Nexera system (Shimadzu, Kyoto, Japan) coupled to the triple quadrupole mass spectrometer QTrap 5500 (Sciex, Framingham, MA, USA) equipped with Turbo V™ ion source. After preparation, the samples were injected (5 μL) onto Acquity UPLC BEH C18 (3.0 × 100 mm, 1.7 μm, Waters, Milford, MA, USA) analytical column. The mobile phases that consisted of ACN with 0.1% FA (A) and water with 0.1% FA (B) were delivered in isocratic elution mode (40% A, 60% B) at the flow rate of 550 μL/min. The total time of analysis was 8 min including 2 min of column equilibration.
(§3) An amount of 50 μL of sample (plasma or brain homogenate) was transferred into the clean Eppendorf tube and spiked with 5 μL of internal standard solution (IS, 1 μg/mL) obtaining the final concentration of 100 ng/mL. After 5 min of mixing (1500 rpm), proteins were precipitated using 150 μL ACN. After 10 min of samples shaking (1500 rpm), the incubation step was performed (10 min, 4 °C). Next, samples were centrifuged (10,000 rpm, 10 min, 4 °C) and the supernatant was transferred into chromatographic vial for LC/MS/MS analysis.
The brain homogenate was prepared maintaining the tissue: phosphate-buffered saline (PBS) ratio at 1:5. The homogenization was carried out employing IKA® T10 Basic ULTRA-TURRAX disperser (IKA Werke GmbH & Co. KG, Staufen, Germany). After homogenization, all samples were centrifuged (3000 rpm, 10 min, 4 °C) and 50 μL of supernatant was collected for further preparation. All samples were stored on ice during the preparation process.

[2] = cited from earlier work
[3] = system: corticosterone-treated mice; experiment: forced swim test, single administration, corticosterone model; assay type: in vivo
Experimental: Mice were injected with corticosterone (s.c., 20 mg/kg) at random times during the light phase for consecutive 21 days (Fig. 1c). The dose and route of administration of corticosterone were based on studies performed by Zhao and colleagues. After the end of the procedure, next day 30 min before the test, corticosterone-treated mice were given (i.p.) saline, HBK-15 (1.25 mg/kg), fluoxetine (10 mg/kg), or ketamine (1 mg/kg) (Fig. 1c). Control mice received (i.p.) saline. The experimental groups consisted of eight randomly selected animals. We chose the dose of HBK-15 that was active in the chronic experiments (i.e., 1.25 mg/kg). The dose of ketamine was based on the studies performed by Pazini and colleagues. Animals were tested in the forced swim test and spontaneous locomotor activity test. After behavioral testing, mice were scarified and their hippocampi collected for biochemical analysis.
Forced swim test was performed according to the method described by Porsolt and colleagues and previously described. Mice were placed individually for 6 min in glass cylinders (height 25 cm, diameter 10 cm) containing […] (23–25 °C). The total time of immobility was recorded during the final 4 min of the test. The experiments were recorded and scored using aLab.io software by a trained observer blind to the treatments.

[4] = cited from earlier work; for effect on blood pressure after chronic treatment: antidepressant- and anxiolytic-like doses
[5] = cited from earlier work; remark: listed apart in the source
[6] = pharmacokinetic study in plasma after i.v. and i.p. administration; assay type: in vivo, mice; conditions: HBK-14 2.5 mg/kg, HBK-15 1.25 mg/kg; for AUC(0-inf) / C0: mouse plasma; for C0: read-out: C 0 (initial concentration); for Cmax / MRT / half-life / Tmax / bioavailability / clearance / Vd: CD-1, mouse, plasma; for Cmax: read-out: C max (maximum plasma concentration); for MRT: read-out: MRT (mean residence time) (converted); for half-life: read-out: t 0.5 (terminal half-life); for Tmax: read-out: t max (time to reach the maximum plasma concentration) (converted); for bioavailability: after i.p. administration, AUCi.p./AUCi.v., read-out: F (absolute bioavailability); for clearance: read-out: Cl (systemic clearance); for Vd: read-out: V d (volume of distribution at steady state)
Experimental: as §1
Pharmacokinetic parameters were calculated by a non-compartmental approach from the average concentration values, using Phoenix WinNonlin software (Certara, Princeton, NJ 08540, USA). First-order elimination rate constant (λ z) was calculated by linear regression of time vs log concentration. Next, the area under the mean serum and brain concentration vs time curve extrapolated to infinity (AUC0→∞) was estimated using the log-linear trapezoidal rule (Eq. 1), where C n is the concentration of last sampling of each compound.1 AUC0→∞=∑i=1nCi+Ci+1/2⋅ti+1−ti+Cn/λz
Area under the first moment curve (AUMC0→∞) was estimated by calculation of the total area under the first moment curve and extrapolated area using the Eq. 2, where t n is the time of last sampling.2 AUMC0→∞=∑i=1nti⋅Ci+ti+1⋅Ci+1/2⋅ti+1−ti+tn⋅Cn/λz+Cn/λz2
Mean residence time (MRT) was calculated as3 MRT=AUMC0→∞/AUC0→∞
Total clearance (ClT) was calculated as4 ClT=Div/AUC0→∞
Volume of distribution at steady state (Vss) was calculated as5 Vss=Div⋅AUMC0→∞/AUC0→∞^2
as §2
Electrospray ionization process was performed in positive polarization, and the data acquisition was carried out in multiple reaction monitoring mode (MRM) for all analytes and their internal standard (HBK-11 [37]). The ion spray source settings were as follows: spray voltage 4.5 kV, heater temperature 450 °C, curtain gas 25 psi, source gas 1 40 psi, source gas 2 40 psi.
as §3

[7] = mouse, other: intravenous and intraperitoneal (both arms), after i.v. and i.p. administration

Row | Structure (SMILES) | IC50 (5-HT7 receptor) [nM] | Kp ([1]; CD-1, mouse, ip) | Kp ([1]; CD-1, mouse, iv) | Kp [1, 7] | antihistaminic activity [2] | effect on blood pressure after chronic treatment [4] | cholinolytic activity [5] | AUC(0-inf) ([6]; CD-1, ip, i.p.) [ng·h/mL] | AUC(0-inf) ([6]; CD-1, iv, i.v.) [ng·h/mL] | C0 ([6]; CD-1, iv, i.v.) [ng/mL] | Cmax ([6]; ip) [ng/mL] | MRT ([6]; ip) [h] | half-life ([6]; ip) [h] | Tmax ([6]; ip) [min] | bioavailability ([6]; ip) [%] | clearance ([6]; iv) [mL/min/kg] | MRT ([6]; iv) [h] | Vd ([6]; iv) [L/kg] | half-life ([6]; iv) [h] | t 0.5 (terminal half-life) ([6]; i.p.) [h] | further results
1 | COc1ccccc1N1CCN(CCOCCOc2c(C)cccc2Cl)CC1.Cl [HBK-15, 1-[(2-chloro-6-methylphenoxy)ethoxyethyl]-4-(2-methoxyphenyl)piperazine hydrochloride] | 220 | 0.27 | 0.68 | < 1 | negligible | neither HBK-14 nor HBK-15 lowered blood pressure | negligible | 261 | 484 | 602 | 359 | 1.81 | 1.4 | 5 | 54 | 40.2 | 1.5 | 3.5 | 1.18 | 1.39 | Tmax ([1]; CD-1, mouse, brain, ip, 1.25 mg/kg, read-out: time of maximal concentration in the brain (converted)): 5 min; effect on corticosterone-induced increase in immobility ([3]; single 1.25 mg/kg i.p., 30 min before the test): reversed an increase in immobility; hypotensive activity after single administration [4]: did not exhibit hypotensive activity; t 0.5 (terminal half-life) ([6]; i.v.): 1.18 h
2 | C[C@]12C[C@H](O)[C@H]3[C@@H](CCC4=CC(=O)CC[C@@]43C)[C@@H]1CC[C@@H]2C(=O)CO [corticosterone] | – | – | – | – | – | – | – | – | – | – | – | – | – | – | – | – | – | – | – | – | increase in immobility vs control ([3]; acute experiment, corticosterone 20 mg/kg s.c. 21 days + saline): 20%
3 | COc1ccccc1N1CCN(CCOCCOc2c(C)cccc2C)CC1.Cl [HBK-14, 1-[(2,6-Dimethylphenoxy)ethoxyethyl]-4-(2-methoxyphenyl)piperazine hydrochloride] | 77 | 0.46 | 0.8 | < 1 | negligible | neither HBK-14 nor HBK-15 lowered blood pressure | negligible | 560 | 1720 | 410 | 269 | 0.805 | 0.633 | 5 | 15 | 24.2 | 7.57 | 11.2 | 5.38 | 0.637 | t 0.5 (terminal half-life) ([6]; i.v.): 5.378 h
